Entries after “also recorded” stand apart in the source; their conditions may differ.
Legend:
[1] = biological target: IGF-1R on mouse microglia (primary retinal and brain microglia, BV2 cell line) (mouse) (UniProt Q60751); test: cell-based or functional assay
[2] = system: human microglial cell line; test: qPCR of IL-6 induction in LPS+ATP-stimulated human microglial cell line (IGF1R agonist / IGF1 antibody screen); format: cell-based; details: treatment 6 hours after LPS+ATP; compared with various IGF1 antibodies
Procedure: FIG. 8. Screening for anti-human IGF1 agonist antibody with a counter-inflammatory effect on microglial activation. Result of qPCR measuring levels of pro-inflammatory cytokine IL-6 induction in human microglial cell line that were stimulated by LPS and ATP (LPS+ATP) followed by treatment with IGF1R agonist Rg5 or various IGF1 antibodies 6 hours after LTP+ATP administration. […] Error bar=SEM. *P<0.05 by one way ANOVA.
qPCR was used to measure levels of pro-inflammatory cytokine IL-6 induction in a human microglial cell line stimulated by LPS and ATP (LPS+ATP) followed by treatment with IGF1R agonist Rg5 or various IGF1 antibodies 6 hours after LTP+ATP administration.

[3] = system: ischemic optic neuropathy in mice; test: Mouse model of ischemic optic neuropathy, intravitreal injection; format: in vivo; details: intravitreal injections at days 1, 8 and 17 post injury; 4 weeks after induction
From the text: FIG. 9. Rescue of RGC function and vision by intravitreal injection of IGF1R agonist in a mouse model of ischemic optic neuropathy. Quantifications of electroretinogram positive scotopic threshold response (pSTR) amplitudes, visual acuity and contrast sensitivity before (Baseline) and at 4 weeks (4 wks) after induction of ischemic optic neuropathy in mice received intravitreal injections of control or RG5 IGF1R agonist at day 1, 8 and 17 post injury. Error bar=SEM. *P<0.05 by one way ANOVA.
The adult mice were dark adapted in a dark adaptation chamber overnight before conducting ERG. […] The pSTR was measured from the baseline to the peak of the positive deflection. […]
The mouse was placed on a small platform in the middle of the optomotor chamber. […] The contrast at a given spatial frequency is calculated using the formula (Lmax−Lmin)/(Lmax+Lmin) where Lmax is the brightness (in cd/m^2) of the white stripe, and Lmin is the brightness of the black stripe (in cd/m^2). Contrast level, stripe width, grating speed, and direction of stripe movement (clockwise vs. counterclockwise) were measured. According to the tracking of head movements on the mouse to the moving stripes, the visual acuity and contrast sensitivity can be measured. […] By changing the stripe width and the contrast, visual acuity and contrast sensitivity of mice can be assessed. […]

Sequence of UniProt Q60751 (Q60751 31-1373): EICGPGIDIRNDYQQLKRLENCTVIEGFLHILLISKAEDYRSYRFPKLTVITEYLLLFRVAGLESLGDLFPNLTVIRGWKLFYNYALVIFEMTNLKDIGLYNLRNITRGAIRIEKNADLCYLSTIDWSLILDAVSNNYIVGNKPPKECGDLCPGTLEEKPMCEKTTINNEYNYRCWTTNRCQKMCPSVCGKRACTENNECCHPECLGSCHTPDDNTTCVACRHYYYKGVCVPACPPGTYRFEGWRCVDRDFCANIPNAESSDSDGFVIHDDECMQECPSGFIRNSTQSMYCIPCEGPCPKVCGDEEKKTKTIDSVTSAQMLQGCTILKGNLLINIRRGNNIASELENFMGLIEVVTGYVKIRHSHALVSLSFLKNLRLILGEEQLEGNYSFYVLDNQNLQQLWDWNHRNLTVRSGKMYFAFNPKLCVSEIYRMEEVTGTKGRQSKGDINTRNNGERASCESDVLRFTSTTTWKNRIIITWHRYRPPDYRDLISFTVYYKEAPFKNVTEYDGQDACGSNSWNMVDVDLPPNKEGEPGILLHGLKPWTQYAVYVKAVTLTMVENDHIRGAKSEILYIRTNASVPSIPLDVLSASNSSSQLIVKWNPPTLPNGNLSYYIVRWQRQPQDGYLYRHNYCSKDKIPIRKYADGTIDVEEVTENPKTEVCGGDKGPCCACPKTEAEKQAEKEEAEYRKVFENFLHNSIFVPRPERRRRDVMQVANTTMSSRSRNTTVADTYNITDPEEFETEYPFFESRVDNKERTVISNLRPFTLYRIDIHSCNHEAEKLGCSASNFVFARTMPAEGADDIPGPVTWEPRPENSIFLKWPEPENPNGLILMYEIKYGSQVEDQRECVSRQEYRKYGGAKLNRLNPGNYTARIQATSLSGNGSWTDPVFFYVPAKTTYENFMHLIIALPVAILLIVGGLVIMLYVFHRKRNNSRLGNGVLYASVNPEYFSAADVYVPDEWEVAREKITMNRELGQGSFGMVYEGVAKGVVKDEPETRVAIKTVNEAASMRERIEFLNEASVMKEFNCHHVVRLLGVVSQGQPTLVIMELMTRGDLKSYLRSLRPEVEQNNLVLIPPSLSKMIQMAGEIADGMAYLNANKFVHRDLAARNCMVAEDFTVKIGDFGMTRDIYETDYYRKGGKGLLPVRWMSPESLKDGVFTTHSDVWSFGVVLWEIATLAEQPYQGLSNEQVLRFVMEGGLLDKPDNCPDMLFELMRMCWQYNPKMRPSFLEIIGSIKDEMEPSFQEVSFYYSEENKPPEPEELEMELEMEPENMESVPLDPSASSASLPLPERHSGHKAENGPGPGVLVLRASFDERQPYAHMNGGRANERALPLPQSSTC

Molecule | PI3K phosphorylation (Western blot, BV2 microglia) [1] [fold] | Anti-inflammatory effect on IL-6 induction (qPCR) [2] | RGC function (pSTR amplitudes) and vision (visual acuity, contrast sensitivity) [3]
insulin-like growth factor binding protein like protein 1 (IGFBPL1), recombinant (R&D system, 4130-BL) (from UniProt Q80W15 18-270) (ligand) | 8 |  | 
CC(C)=CC/C=C(\C)[C@H]1CC[C@]2(C)[C@@H]1[C@H](O)C[C@@H]1[C@@]3(C)CC[C@H](O[C@@H]4O[C@H](CO)[C@@H](O)[C@H](O)[C@H]4O[C@@H]4O[C@H](CO)[C@@H](O)[C@H](O)[C@H]4O)C(C)(C)[C@@H]3CC[C@]12C [Rg5, ginsenoside RG5] |  | largest anti-inflammatory effect; also recorded: greatest anti-inflammatory effect | protects RGC function and vision against ischemic optic neuropathy-induced functional loss
